The record followed here is patent US10919841B2, “Monoamine reuptake inhibitors” (Research Triangle Institute, priority 2009, dated 2021).

T1 sequence (Q01959 whole entry): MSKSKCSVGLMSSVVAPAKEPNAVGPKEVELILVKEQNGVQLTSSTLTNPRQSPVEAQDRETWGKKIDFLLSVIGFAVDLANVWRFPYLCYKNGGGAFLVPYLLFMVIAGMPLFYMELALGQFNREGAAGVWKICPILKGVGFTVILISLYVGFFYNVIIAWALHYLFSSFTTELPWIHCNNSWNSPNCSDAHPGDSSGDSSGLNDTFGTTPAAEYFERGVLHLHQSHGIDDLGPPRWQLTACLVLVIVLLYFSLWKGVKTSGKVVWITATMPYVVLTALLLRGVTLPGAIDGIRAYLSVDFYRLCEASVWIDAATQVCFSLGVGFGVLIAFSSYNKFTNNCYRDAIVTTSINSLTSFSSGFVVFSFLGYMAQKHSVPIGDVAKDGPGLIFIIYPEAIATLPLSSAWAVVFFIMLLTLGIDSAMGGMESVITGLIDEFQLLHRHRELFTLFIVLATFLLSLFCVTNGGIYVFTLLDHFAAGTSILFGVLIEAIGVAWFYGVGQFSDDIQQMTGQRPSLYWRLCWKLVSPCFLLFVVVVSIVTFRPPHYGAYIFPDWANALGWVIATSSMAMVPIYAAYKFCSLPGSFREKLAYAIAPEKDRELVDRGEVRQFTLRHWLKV
T2 sequence (P31645 whole entry): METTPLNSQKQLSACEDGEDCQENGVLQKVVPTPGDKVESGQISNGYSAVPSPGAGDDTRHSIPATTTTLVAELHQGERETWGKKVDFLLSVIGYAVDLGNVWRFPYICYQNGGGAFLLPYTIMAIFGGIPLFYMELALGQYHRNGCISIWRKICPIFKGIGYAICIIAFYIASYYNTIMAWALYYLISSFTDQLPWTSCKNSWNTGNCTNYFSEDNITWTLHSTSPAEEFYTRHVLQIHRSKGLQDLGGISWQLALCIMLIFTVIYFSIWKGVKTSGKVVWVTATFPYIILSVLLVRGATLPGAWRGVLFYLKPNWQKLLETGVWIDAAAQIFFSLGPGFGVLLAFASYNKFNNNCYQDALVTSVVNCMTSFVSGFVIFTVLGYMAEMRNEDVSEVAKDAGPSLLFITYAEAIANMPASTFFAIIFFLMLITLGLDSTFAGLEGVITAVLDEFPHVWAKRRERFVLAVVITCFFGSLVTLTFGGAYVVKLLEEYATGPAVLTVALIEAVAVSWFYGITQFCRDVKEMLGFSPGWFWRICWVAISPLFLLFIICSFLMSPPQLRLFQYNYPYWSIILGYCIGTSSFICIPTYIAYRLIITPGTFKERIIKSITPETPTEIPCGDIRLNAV

One assay addresses T1, (h)DAT (Homo sapiens, UniProt Q01959).
T1 construct: expressed in transfected cells
Nature of the assay: competition binding with [125I]RTI-55 at (h)DAT stably expressed in HEK293 cells.
Conditions: not given
Consider `C[C@@H](NC(C)(C)C)[C@H](O)c1ccccc1` (racemic) [Compound 7, (1RS,2RS)-2-(N-tert-Butylamino)-1-phenyl-1-propanol, reference compound], for which the “affinity at the DAT, in words” value was “loss of affinity”.

The assay is the same for the next values; noted with them: mean ± standard error of three independent experiments.
For orientation: Ki means the dissociation constant of the complex between target and ligand, obtained from inhibition or displacement. For `CC(NC(C)(C)C)C(=O)c1ccccc1` (stereo not drawn) [Compound 2b, 2-(N-tert-Butylamino)propiophenone], the Ki amounted to 5730 nM.
The same measure, in the same setting: for `CCCCCCC(NC(C)(C)C)C(=O)c1cccc(Cl)c1` (stereo not drawn) [Compound 2s, 2-(N-tert-Butylamino)-3′-chlorooctanophenone] the value was 510 nM; for `CC(NC1CCCC1)C(=O)c1cccc(Cl)c1` (stereo not drawn) [Compound 2z, 2-(N-Cyclopentylamino)-3′-chloropropiophenone], 2200 nM.

The target of the next assay is T1, (h)DAT. Nature of the assay: block of [3H]dopamine reuptake in HEK-(h)DAT cells. The assay is classed as cell-based. Particulars: [3H]DA; read-out: IC50 for DA uptake inhibition.
One may read the IC50 as the concentration needed to halve the response being measured. Take `CCCCCCC(NC(C)(C)C)C(=O)c1cccc(Cl)c1` (stereo not drawn) [Compound 2s, 2-(N-tert-Butylamino)-3′-chlorooctanophenone]: the IC50 was found to be 135 nM.
On the same count and under the same terms, for `CC(NC1CCCC1)C(=O)c1cccc(Cl)c1` (stereo not drawn) [Compound 2z, 2-(N-Cyclopentylamino)-3′-chloropropiophenone] the value was 980 nM.

Still in this assay, the particulars now being: mean ± standard error of three independent experiments; read-out: Uptake, IC50 [3H]DA.
As to `CC(NC(C)(C)C)C(=O)c1ccccc1` (stereo not drawn) [Compound 2b, 2-(N-tert-Butylamino)propiophenone], the IC50 was found to be 2310 nM.

The next assay addresses T2, (h)SERT (Homo sapiens, UniProt P31645).
T2 construct: expressed in transfected cells; host or cells: HEK293
In words: block of [3H]serotonin reuptake in HEK-(h)SERT cells. The assay is classed as cell-based.
Conditions: not given
On to `CC(NC1CCCC1)C(=O)c1cccc(Cl)c1` (stereo not drawn) [Compound 2z, 2-(N-Cyclopentylamino)-3′-chloropropiophenone], for which the “5HT uptake inhibition, in words” value is “totally inactive”.

The assay is the same for the next values; noted with them: [3H]5HT; read-out: IC50 for 5HT uptake inhibition.
`C[C@@H](NC(C)(C)C)[C@H](O)c1ccccc1` (racemic) [Compound 7, (1RS,2RS)-2-(N-tert-Butylamino)-1-phenyl-1-propanol, reference compound]: the IC50 worked out at 1240 nM.

Another assay has as its system mice. In words: locomotor activity, 1-h observation protocol. The assay is classed as in vivo. Particulars: Mus musculus, 0.5 h, read-out: Locomotor Activity 1-Hour % Peak Cocaine.
Consider `CC(NC(C)(C)C)C(=O)c1ccccc1` (stereo not drawn) [Compound 2b, 2-(N-tert-Butylamino)propiophenone], for which the Emax turned out to be 120%.
With `CCCCCCC(NC(C)(C)C)C(=O)c1cccc(Cl)c1` (stereo not drawn) [Compound 2s, 2-(N-tert-Butylamino)-3′-chlorooctanophenone], the Emax is 61%.
Still for that read-out and setting: the figure for `CC(NC1CCCC1)C(=O)c1cccc(Cl)c1` (stereo not drawn) [Compound 2z, 2-(N-Cyclopentylamino)-3′-chloropropiophenone] is 110%.

The assay is the same for the next values; noted with them: Mus musculus; dose to produce 50% of the compound's maximal effect; 1-h.
By ED50 is commonly meant the dose that gives a 50% effect, or the effect in half of the subjects. In turn, `CC(NC(C)(C)C)C(=O)c1ccccc1` (stereo not drawn) [Compound 2b, 2-(N-tert-Butylamino)propiophenone] gave an ED50 of 8.1 mg/kg.
In turn, `CCCCCCC(NC(C)(C)C)C(=O)c1cccc(Cl)c1` (stereo not drawn) [Compound 2s, 2-(N-tert-Butylamino)-3′-chlorooctanophenone] showed an ED50 of 33.3 mg/kg.
Same read-out and setting: the figure for `CC(NC1CCCC1)C(=O)c1cccc(Cl)c1` (stereo not drawn) [Compound 2z, 2-(N-Cyclopentylamino)-3′-chloropropiophenone] is 10.6 mg/kg.

For the next assay, the system named is mice. Nature of the assay: locomotor activity, 8-h time course protocol. The class given is in vivo. Particulars: 1-h and 8-h tests compared.
As for `CC(NC(C)(C)C)C(=O)c1ccccc1` (stereo not drawn) [Compound 2b, 2-(N-tert-Butylamino)propiophenone], the “locomotor stimulant activity across the 1-h and 8-h protocols, in words” value is listed as “strong stimulants in both studies”.
On the same count and under the same terms, for `CCCCCCC(NC(C)(C)C)C(=O)c1cccc(Cl)c1` (stereo not drawn) [Compound 2s, 2-(N-tert-Butylamino)-3′-chlorooctanophenone] the value was “weak stimulants in both tests”; for `CC(NC1CCCC1)C(=O)c1cccc(Cl)c1` (stereo not drawn) [Compound 2z, 2-(N-Cyclopentylamino)-3′-chloropropiophenone], “strong stimulants in both studies”.

The same assay, now with this note: Mus musculus, 8 h, read-out: Locomotor Activity 8-Hour ED50.
Consider `CC(NC1CCCC1)C(=O)c1cccc(Cl)c1` (stereo not drawn) [Compound 2z, 2-(N-Cyclopentylamino)-3′-chloropropiophenone], for which the ED50 amounted to 10.6 mg/kg.

Staying with this assay, now noted: Mus musculus, read-out: Locomotor Activity 8-Hour % Peak Cocaine, percent of cocaine's maximal effect, 30 min period of maximum stimulation.
Consider `CC(NC(C)(C)C)C(=O)c1ccccc1` (stereo not drawn) [Compound 2b, 2-(N-tert-Butylamino)propiophenone], for which the Emax amounted to 98%.
Still for that read-out and setting: the figure for `CCCCCCC(NC(C)(C)C)C(=O)c1cccc(Cl)c1` (stereo not drawn) [Compound 2s, 2-(N-tert-Butylamino)-3′-chlorooctanophenone] is 60%.
Same read-out and setting: the figure for `CC(NC1CCCC1)C(=O)c1cccc(Cl)c1` (stereo not drawn) [Compound 2z, 2-(N-Cyclopentylamino)-3′-chloropropiophenone] is 110%.

Staying with this assay, now noted: Mus musculus; dose to produce 50% of the compound's maximal effect; 8-h; read-out: Locomotor Activity 8-Hour ED50.
On to `CC(NC(C)(C)C)C(=O)c1ccccc1` (stereo not drawn) [Compound 2b, 2-(N-tert-Butylamino)propiophenone], for which the ED50 was 10.5 mg/kg.
Still for that read-out and setting: for `CCCCCCC(NC(C)(C)C)C(=O)c1cccc(Cl)c1` (stereo not drawn) [Compound 2s, 2-(N-tert-Butylamino)-3′-chlorooctanophenone] the value was 9 mg/kg.

Still in this assay, the particulars now being: duration of locomotor activity.
For the compound `CCCCCCC(NC(C)(C)C)C(=O)c1cccc(Cl)c1` (stereo not drawn) [Compound 2s, 2-(N-tert-Butylamino)-3′-chlorooctanophenone], the “Locomotor Activity 8-Hour Time, min Period, length” value lay within 130 to 140 min.
The same measure, in the same setting: the figure for `CC(NC1CCCC1)C(=O)c1cccc(Cl)c1` (stereo not drawn) [Compound 2z, 2-(N-Cyclopentylamino)-3′-chloropropiophenone] is 330 to 340 min.

The assay is the same for the next values; noted with them: mouse, in vivo.
For `CC(NC1CCCC1)C(=O)c1cccc(Cl)c1` (stereo not drawn) [Compound 2z, 2-(N-Cyclopentylamino)-3′-chloropropiophenone], the “onset and duration of locomotor activity, in words” value is reported as “long durations of action”.

The same assay, now with this note: time period of maximum effect.
As to `CC(NC(C)(C)C)C(=O)c1ccccc1` (stereo not drawn) [Compound 2b, 2-(N-tert-Butylamino)propiophenone], the “Locomotor Activity 8-Hour Time, min Period, max” value lay in the range of 0 to 30 min.
On the same count and under the same terms, for `CCCCCCC(NC(C)(C)C)C(=O)c1cccc(Cl)c1` (stereo not drawn) [Compound 2s, 2-(N-tert-Butylamino)-3′-chlorooctanophenone] the value was 110 to 140 min.
The same measure, in the same setting: for `CC(NC1CCCC1)C(=O)c1cccc(Cl)c1` (stereo not drawn) [Compound 2z, 2-(N-Cyclopentylamino)-3′-chloropropiophenone] the value was 0 to 30 min.

The next assay deals with T3, (h)NET (Homo sapiens, UniProt P23975). Nature of the assay: block of [3H]norepinephrine reuptake in HEK-(h)NET cells. Particulars: read-out: IC50 for NE uptake inhibition; [3H]NE.
T3 sequence (P23975 whole entry): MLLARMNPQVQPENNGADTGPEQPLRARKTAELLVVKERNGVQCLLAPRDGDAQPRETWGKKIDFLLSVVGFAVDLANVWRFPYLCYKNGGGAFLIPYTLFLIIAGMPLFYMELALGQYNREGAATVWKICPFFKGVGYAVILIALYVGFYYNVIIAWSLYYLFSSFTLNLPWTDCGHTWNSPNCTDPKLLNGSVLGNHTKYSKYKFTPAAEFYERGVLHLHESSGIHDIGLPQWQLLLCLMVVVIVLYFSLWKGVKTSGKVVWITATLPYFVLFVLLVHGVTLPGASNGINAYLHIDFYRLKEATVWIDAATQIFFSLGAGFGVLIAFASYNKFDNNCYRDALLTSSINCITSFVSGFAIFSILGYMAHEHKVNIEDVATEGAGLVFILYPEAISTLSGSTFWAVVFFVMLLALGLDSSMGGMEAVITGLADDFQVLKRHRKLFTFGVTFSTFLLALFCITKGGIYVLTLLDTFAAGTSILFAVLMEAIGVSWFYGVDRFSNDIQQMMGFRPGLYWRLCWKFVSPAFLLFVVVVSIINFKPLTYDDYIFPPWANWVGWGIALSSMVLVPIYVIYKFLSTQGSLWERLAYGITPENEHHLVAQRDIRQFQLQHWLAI
As for `CC(NC1CCCC1)C(=O)c1cccc(Cl)c1` (stereo not drawn) [Compound 2z, 2-(N-Cyclopentylamino)-3′-chloropropiophenone], the IC50 turned out to be 0.221 µM.

Staying with this assay, now noted: read-out: Uptake, IC50 [3H]NE; mean ± standard error of three independent experiments.
With `CC(NC(C)(C)C)C(=O)c1ccccc1` (stereo not drawn) [Compound 2b, 2-(N-tert-Butylamino)propiophenone], the IC50 is 8.7 µM.
Same read-out and setting: the figure for `CCCCCCC(NC(C)(C)C)C(=O)c1cccc(Cl)c1` (stereo not drawn) [Compound 2s, 2-(N-tert-Butylamino)-3′-chlorooctanophenone] is 4.89 µM.

The next assay concerns rats. Nature of the assay: cocaine discrimination (2-lever operant), i.p. administration. Particulars: Rattus norvegicus, ip, read-out: % cocaine lever responding.
For the compound `CC(NC(C)(C)C)C(=O)c1ccccc1` (stereo not drawn) [Compound 2b, 2-(N-tert-Butylamino)propiophenone], the responders at 5 mg/kg is 3%, the responders at 10 mg/kg amounted to 83% and the responders at 25 mg/kg stood at 83%.
Consider `CCCCCCC(NC(C)(C)C)C(=O)c1cccc(Cl)c1` (stereo not drawn) [Compound 2s, 2-(N-tert-Butylamino)-3′-chlorooctanophenone], for which the responders at 5 mg/kg came out at 0%, the responders at 10 mg/kg came out at 0%, the responders at 25 mg/kg was 49% and the responders at 50 mg/kg was determined as 50%. The responders at 100 mg/kg worked out at 67%.
Turning to `CC(NC1CCCC1)C(=O)c1cccc(Cl)c1` (stereo not drawn) [Compound 2z, 2-(N-Cyclopentylamino)-3′-chloropropiophenone], the responders at 5 mg/kg was found to be 2%, the responders at 10 mg/kg came out at 0%, the responders at 25 mg/kg is 66% and the responders at 50 mg/kg is 83%.

Still in this assay, the particulars now being: Rattus norvegicus, ip, read-out: Full Generalization ED50.
`CC(NC(C)(C)C)C(=O)c1ccccc1` (stereo not drawn) [Compound 2b, 2-(N-tert-Butylamino)propiophenone]: the ED50 amounted to 5.65 mg/kg.
Consider `CC(NC1CCCC1)C(=O)c1cccc(Cl)c1` (stereo not drawn) [Compound 2z, 2-(N-Cyclopentylamino)-3′-chloropropiophenone], for which the ED50 came out at 10.8 mg/kg.

Another assay relates to rats. In words: cocaine discrimination time-course study, oral administration. Particulars: Rattus norvegicus, po, 0.75 h.
`CC(NC(C)(C)C)C(=O)c1ccccc1` (stereo not drawn) [Compound 2b, 2-(N-tert-Butylamino)propiophenone] gave an ED50 of 25.6 mg/kg.
Same read-out and setting: for `CCCCCCC(NC(C)(C)C)C(=O)c1cccc(Cl)c1` (stereo not drawn) [Compound 2s, 2-(N-tert-Butylamino)-3′-chlorooctanophenone] the value was 37.9 mg/kg.
For the compound `CC(NC1CCCC1)C(=O)c1cccc(Cl)c1` (stereo not drawn) [Compound 2z, 2-(N-Cyclopentylamino)-3′-chloropropiophenone], the ED50 worked out at 8.28 mg/kg.

In a further assay the target is T3, (h)NET. Nature of the assay: competition binding with [125I]RTI-55 at (h)NET stably expressed in HEK293 cells.
Conditions: not given
Turning to `C[C@@H](NC(C)(C)C)[C@H](O)c1ccccc1` (racemic) [Compound 7, (1RS,2RS)-2-(N-tert-Butylamino)-1-phenyl-1-propanol, reference compound], the “affinity at the NET, in words” value is recorded as “loss of affinity”.

Staying with this assay, now noted: read-out: Binding, Ki NET; mean ± standard error of three independent experiments.
With `CC(NC(C)(C)C)C(=O)c1ccccc1` (stereo not drawn) [Compound 2b, 2-(N-tert-Butylamino)propiophenone], the Ki came to 5.7 µM.
Consider `CCCCCCC(NC(C)(C)C)C(=O)c1cccc(Cl)c1` (stereo not drawn) [Compound 2s, 2-(N-tert-Butylamino)-3′-chlorooctanophenone], for which the Ki is 2.58 µM.
Still for that read-out and setting: for `CC(NC1CCCC1)C(=O)c1cccc(Cl)c1` (stereo not drawn) [Compound 2z, 2-(N-Cyclopentylamino)-3′-chloropropiophenone] the value was 5.7 µM.
